Experimental data taken from PubChem BioAssay AID651857 (Broad Institute, 2012).
Values joined by “and” are separate entries in the source; they are usually repeats but may differ in a detail not shown here. Equal entries are not always repeated. Active and inactive are the calls of the source. No rule for the calls is given here.

system: not listed separately; experiment: Mycobacterium tuberculosis starvation survival, colony forming units enumeration, confirmatory dose response (AID 651857); conditions: M. tuberculosis starvation survival, CFU enumeration

SMILES | outcome
O=S(=O)(Cc1cn(Cc2ccccc2)nn1)c1nnc(-c2ccc(Cl)cc2)o1 | inactive

system: M. tuberculosis starvation survival, CFU enumeration; experiment: as above; conditions: not given

SMILES | IC90
O=S(Cc1ccccc1)c1nnc(-c2ccccc2)o1 (stereo unspecified) | < 8 µM and 2 µM
c1ccc(-c2nnc(SC3CCCCC3)o2)cc1 | 31 µM
Fc1ccc(Cn2cc(CSc3nnc(-c4ccc(Cl)cc4)o3)nn2)cc1 | 2 µM
FC(F)(F)Oc1ccc(CSc2nnc(-c3ccccc3)o2)cc1 | > 62 µM (inactive)
Fc1ccc(-c2nnc(SCc3ccccc3)o2)cc1 | 31 µM
Brc1cccc(-c2nnc(SCc3ccccn3)o2)c1 | < 8 µM
c1ccc(CSc2nnc(-c3cnco3)o2)cc1 | 16 µM
Fc1ccc(-c2nnc(SCc3ccccn3)o2)cc1 | < 8 µM
Fc1cccc(-c2nnc(SCc3ccccn3)o2)c1 | < 8 µM
c1ccc(-n2cc(CSc3nnc(C4CCC4)o3)nn2)cc1 | 2 µM
Clc1ccc(-c2nnc(SCc3cn(-c4ccccc4)nn3)o2)cc1 | 2 µM
c1ccc(-c2nnc(SCCC3OCCCO3)o2)cc1 | 10 µM
[N-]=[N+]=NCCOCCNC(=O)CCCOc1ccc(CSc2nnc(-c3ccc(Cl)cc3)o2)nc1 | < 8 µM
c1ccc(Cn2cc(CSc3nnc(C4CCCC4)o3)nn2)cc1 | 31 µM
Brc1ccc(-c2nnc(SCc3ccccn3)o2)cc1 | < 8 µM
Clc1ccc(-c2nnc(SCc3cn(Cc4ccccc4)nn3)o2)cc1 | 2 µM and < 8 µM
N#Cc1ccccc1CSc1nnc(-c2ccccc2)o1 | > 62 µM (inactive)
Fc1ccc(Cn2cc(CSc3nnc(C4CCCC4)o3)nn2)cc1 | 8 µM
COc1cccc(CSc2nnc(-c3ccccc3)o2)c1 | 16 µM
c1ccc(-c2nnc(SCCN3CCN(c4ccccc4)CC3)o2)cc1 | 16 µM
FC1(F)CN(CCSc2nnc(-c3ccccc3)o2)C1 | > 62 µM (inactive)
CN(Cc1ccccc1)c1nnc(-c2ccccc2)o1 | > 62 µM (inactive)
O=S(Cc1cn(Cc2ccc(F)cc2)nn1)c1nnc(-c2ccc(Cl)cc2)o1 (stereo unspecified) | 2 µM
Cc1ccc(-c2nnc(SCc3ccccc3)o2)cc1 | > 62 µM (inactive)
c1ccc(CSc2nnc(-c3cccs3)o2)cc1 | > 62 µM (inactive)
c1ccc(CSc2nnc(C3CCCC3)o2)cc1 | 31 µM
c1ccc(-n2cc(CSc3nnc(C4CCCC4)o3)nn2)cc1 | 4 µM
Fc1ccc(Cn2cc(CSc3nnc(C4CCC4)o3)nn2)cc1 | 8 µM

SMILES | IC90
O=S(Cc1cn(Cc2ccccc2)nn1)c1nnc(-c2ccc(Cl)cc2)o1 (stereo unspecified) | < 31 µM and 8 µM
Fc1cccc(-c2nnc(SCc3ccccc3)o2)c1 | 62 µM
Fc1ccc(-c2nnc(SCc3cn(-c4ccccc4)nn3)o2)cc1 | 2 µM
c1ccc(CCc2nnc(-c3ccccc3)o2)cc1 | > 62 µM (inactive)
Fc1ccc(Cn2cc(CSc3nnc(-c4ccc(F)cc4)o3)nn2)cc1 | 2 µM
c1ccc(CSc2nnc(-c3ccccc3)o2)cc1 | 8 µM
[O-][n+]1ccccc1CSc1nnc(-c2ccccc2)o1 | > 62 µM (inactive)
COc1ccc(CSc2nnc(-c3ccccc3)o2)cc1 | > 62 µM (inactive)
Fc1ccc(-c2nnc(SCc3cn(Cc4ccccc4)nn3)o2)cc1 | 2 µM
c1ccc(COc2nnc(-c3ccccc3)o2)cc1 | > 62 µM (inactive)
c1ccc(-c2nnc(SCc3ccccn3)o2)cc1 | 4 µM
Fc1cccc(CSc2nnc(-c3ccccc3)o2)c1 | 31 µM
c1ccc(Cn2cc(CSc3nnc(-c4ccccc4)o3)nn2)cc1 | 4 µM
c1ccc(CSc2nnc(-c3ccccn3)o2)cc1 | 31 µM
COc1ccc(CSc2nnc(-c3ccc(Cl)cc3)o2)nc1 | < 8 µM
COCCSc1nnc(-c2ccccc2)o1 | 4 µM
c1ccc(-c2nnc(SCc3cscn3)o2)cc1 | 62 µM
COc1cccc(-c2nnc(SCc3ccccn3)o2)c1 | < 8 µM
CC(C)c1nnc(SCc2ccccc2)o1 | 125 µM
c1ccc(Cn2cc(CSc3nnc(C4CCC4)o3)nn2)cc1 | 8 µM
Fc1ccc(CSc2nnc(-c3ccccc3)o2)cc1 | 62 µM
c1ccc(CSc2nnc(-c3cccnc3)o2)cc1 | 62 µM
FC(F)(F)c1ccccc1CSc1nnc(-c2ccccc2)o1 | > 62 µM (inactive)
[N-]=[N+]=NCCOCCNC(=O)CCCOc1ccc(CS(=O)c2nnc(-c3ccc(Cl)cc3)o2)nc1 (stereo unspecified) | < 8 µM
Clc1ccc(CSc2nnc(-c3ccccc3)o2)cc1 | 8 µM
FC1(F)CCN(CCSc2nnc(-c3ccccc3)o2)CC1 | > 62 µM (inactive)
O=S(=O)(Cc1ccccc1)c1nnc(-c2ccccc2)o1 | < 62 µM and 8 µM
